For five compounds, ED50 results are on record in patent US4465843A, “Process for the preparation of derivatives of 2-pyrrole acetic acid with anti-inflammatory activity” (Laboratories Pharmedical SA, priority 1981, dated 1984).

The ED50 is the midpoint of the dose-response relation.

For experiment [1], the system named is paw edema as induced by carrageenin. The experiment in a line: anti-inflammatory activity, paw edema induced by carrageenin in the female rat (Winter et al). It counts as in vivo. The conditions noted are these: po.
For experiment [2], the system named is contorsions as induced by acetic acid. As to the kind of experiment: analgesic activity, contorsions induced by acetic acid by intraperitoneal route in the rat (Koster et al). It counts as in vivo. Conditions: ip.
Setting [3] is: anti-inflammatory activity, carrageenin paw edema, female rat, p.os, read-out: ED50.
Where [4] appears, read: analgesic activity, acetic acid contorsions (i.p.), rat, p.os, read-out: ED50.

Structures are written as SMILES. Like-named read-outs stand apart in the source and are kept apart here.

As for `Cc1cc(CC(=O)O)n(C)c1C(=O)c1ccc(Cl)cc1` [Example 2, acetic acid], the ED50 in experiment [1] (setting [3]) was 1.7 mg/kg; in experiment [2] (setting [4]), 2.5 mg/kg.

In the case of `CCn1c(CC(=O)O)cc(C)c1C(=O)c1ccc(Cl)cc1` [Example 3], the median effective dose (ED50) in experiment [1] (setting [3]) amounted to 21.2 mg/kg; in experiment [2] (setting [4]), 31 mg/kg.

Take `CCn1c(CC(=O)O)cc(C)c1C(=O)c1ccccc1` [Example 4]: the figures for the ED50 in experiment [1] (setting [3]) and in experiment [2] (setting [4]) were 48 mg/kg and 82 mg/kg, respectively.

In experiment [1] (Rattus norvegicus), `COc1ccc2c(c1)c(CC(=O)O)c(C)n2C(=O)c1ccc(Cl)cc1` [Indomethacin, reference compound] yielded a 50% effective dose (ED50) of 2.85 mg/kg.

Regarding `CC(=O)Oc1ccccc1C(=O)O` [acetyl salicylic acid, reference compound], in experiment [2] (Rattus norvegicus), the ED50 amounted to 110 mg/kg.
